Here are results for three compounds from US10786444B2, “PH dependent carriers for targeted release of pharmaceuticals along the gastrointestinal tract, compositions therefrom, and making and using same” (PLx Opco Inc., priority 2011, dated 2020).

A short description of the data set: physchem. On the procedure: In this study, pure salicylic acid (SA) partitioning between cyclohexane and water versus salicylic acid partitioning between cyclohexane and water in SA Formulas A-D was investigated at pH 1 and at pH 7 simulating gastric fluids and duodenum fluids. The study was conducted by adding either SA, SA Formulas A-D into a cyclohexane/water partitioning system and measuring the differential partitioning of SA between the two phase as the value Log P.
In this study, pure naproxen (NAP) partitioning between cyclohexane and water versus NAP partitioning between cyclohexane and water in NAP Formulas A-D was investigated at pH 1 and at pH 7 simulating gastric fluids and duodenum fluids. The study was conducted by adding either NAP, NAP Formulas A-D into a cyclohexane/water partitioning system and measuring the differential partitioning of NAP between the two phase as the value Log P.
In this study, pure indomethacin (INDO) partitioning between cyclohexane and water versus INDO partitioning between cyclohexane and water in INDO Formulas A-D was investigated at pH 1 and at pH 7 simulating gastric fluids and duodenum fluids. The study was conducted by adding either INDO, INDO Formulas A-D into a cyclohexane/water partitioning system and measuring the differential partitioning of INDO between the two phase as the value Log P.
In this study, pure mefenamic acid (MFA) partitioning between cyclohexane and water versus MFA partitioning between cyclohexane and water in MFA Formulas A-D was investigated at pH 1 and at pH 7 simulating gastric fluids and duodenum fluids. The study was conducted by adding either MFA, MFA Formulas A-D into a cyclohexane/water partitioning system and measuring the differential partitioning of MFA between the two phase as the value Log P.

`COc1ccc2c(c1)c(CC(=O)O)c(C)n2C(=O)c1ccc(Cl)cc1` [INDO, indomethacin]: the logD hydrocarbon water is 1.05 (pH 1) and -1.81 (pH 7).
On the same counts, the results for `Cc1cccc(Nc2ccccc2C(=O)O)c1C` [MFA, mefenamic acid] are 0 and 0.47.
For `O=C(O)c1ccccc1O` [SA, salicylic acid] the same measures were -1.11 and 0.
